# Results published in publication PMC9760430, “A stapled chromogranin A-derived peptide homes in on tumors that express αvβ6 or αvβ8 integrins” (International Journal of Biological Sciences, 2023).
# Peptide text beside a SMILES is read from it. * marks the point of attachment. X1 = CC1(C)C(/C=C/C2=C(Oc3ccc(S(=O)(=O)O)cc3)C(=C\C=C3/N(CCCCCC(=O)NCCN4C(=O)CC(*)C4=O)c4ccc(S(=O)(=O)O)cc4C3(C)C)/CCC2)=[N+](CCCCS(=O)(=O)O)c2ccc(S(=O)(=O)[O-])cc21
# Experiments:
# [1] = target: T1, Human αvβ8 (Homo sapiens, UniProt P06756+P26012); experiment: direct integrin binding assay of peptide-IRDye conjugates, human αvβ8-coated plates; conditions: plates coated with recombinant human αvβ8; conjugate 0.01-100 nM, 1 h; bound NIR fluorescence; mean ± SE, n = 2 experiments
# T1 construct: purchased Bio-Techne
# T1 sequence (P06756 31-992 limits assumed): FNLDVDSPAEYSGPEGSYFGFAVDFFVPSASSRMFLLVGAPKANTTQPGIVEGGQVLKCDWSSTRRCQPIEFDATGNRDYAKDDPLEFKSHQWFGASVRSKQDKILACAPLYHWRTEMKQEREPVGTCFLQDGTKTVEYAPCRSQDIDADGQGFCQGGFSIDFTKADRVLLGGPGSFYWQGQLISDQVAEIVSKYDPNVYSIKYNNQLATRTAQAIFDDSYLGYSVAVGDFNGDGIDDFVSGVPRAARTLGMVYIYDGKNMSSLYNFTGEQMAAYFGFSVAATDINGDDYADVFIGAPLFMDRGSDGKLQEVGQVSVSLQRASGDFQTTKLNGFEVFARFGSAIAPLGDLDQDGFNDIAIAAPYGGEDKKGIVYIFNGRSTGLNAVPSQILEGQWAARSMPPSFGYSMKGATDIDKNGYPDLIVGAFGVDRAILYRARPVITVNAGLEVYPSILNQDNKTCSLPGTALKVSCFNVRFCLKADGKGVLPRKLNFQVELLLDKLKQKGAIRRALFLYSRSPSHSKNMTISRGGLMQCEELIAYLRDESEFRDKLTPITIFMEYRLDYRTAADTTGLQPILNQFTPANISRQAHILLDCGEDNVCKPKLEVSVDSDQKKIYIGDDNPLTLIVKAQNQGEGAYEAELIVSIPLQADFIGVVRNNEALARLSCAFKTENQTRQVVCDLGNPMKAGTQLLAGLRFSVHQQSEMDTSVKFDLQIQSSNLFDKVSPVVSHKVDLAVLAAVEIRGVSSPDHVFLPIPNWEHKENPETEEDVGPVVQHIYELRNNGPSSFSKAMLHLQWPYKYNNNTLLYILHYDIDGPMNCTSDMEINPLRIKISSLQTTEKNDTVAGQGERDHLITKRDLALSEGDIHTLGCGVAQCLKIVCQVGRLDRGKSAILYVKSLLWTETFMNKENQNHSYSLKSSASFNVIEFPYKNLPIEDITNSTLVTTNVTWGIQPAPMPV
# T1 sequence (P26012 43-684 limits assumed): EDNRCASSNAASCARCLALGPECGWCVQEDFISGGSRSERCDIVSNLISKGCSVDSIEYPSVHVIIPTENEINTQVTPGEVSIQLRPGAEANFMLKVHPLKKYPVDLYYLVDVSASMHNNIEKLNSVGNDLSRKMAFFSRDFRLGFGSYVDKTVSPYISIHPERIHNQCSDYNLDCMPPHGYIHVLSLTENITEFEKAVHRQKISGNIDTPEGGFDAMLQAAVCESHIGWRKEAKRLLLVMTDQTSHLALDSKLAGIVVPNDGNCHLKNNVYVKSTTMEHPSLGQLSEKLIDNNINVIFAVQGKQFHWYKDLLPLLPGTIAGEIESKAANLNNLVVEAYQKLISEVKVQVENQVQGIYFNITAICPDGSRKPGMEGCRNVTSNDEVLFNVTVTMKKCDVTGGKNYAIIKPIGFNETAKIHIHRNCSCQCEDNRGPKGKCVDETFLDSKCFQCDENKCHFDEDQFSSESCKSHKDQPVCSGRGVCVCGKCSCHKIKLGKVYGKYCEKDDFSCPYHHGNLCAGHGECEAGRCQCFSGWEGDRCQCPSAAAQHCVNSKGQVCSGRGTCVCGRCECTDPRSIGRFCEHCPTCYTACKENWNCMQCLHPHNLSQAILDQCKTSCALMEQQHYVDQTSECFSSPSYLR
# Protocol: (§1) The affinity of peptide-IRDye conjugates for αvβ6 and αvβ8 integrins was determined by a direct binding assay using microtiter plates coated with αvβ6 or αvβ8 (Bio-Techne). After 1 h of incubation, the plates were washed; bound fluorescence was quantified by scanning the plates with an Odyssey CLx near-infrared fluorescence imaging system (LI-COR). […]
# (§2) The simplified molecular-input line-entry system (SMILES) of 5a-, 2a-, Cys- and 5a-Scr- […]
# (§3) The concentration of each conjugate was quantified by spectrophotometric analysis at 774 nm (molar absorption coefficient, 240,000 M-1, cm-1) (Figure S3B). The final yield of 5a-IRDye […]
# (§4) Binding of peptide-IRDye conjugates to avb6 and avb8 integrin
# (§5) The binding affinity of peptide-IRDye conjugates for human and murine avb6 and avb8 integrins was determined as follows: 96-well clear-bottom black microtiter plates (Corning® cat. 3601) were coated with 2 μg/ml avb6 or avb8 (50 µl/well), in Dulbecco’s phosphate-buffered saline containing Ca2+ and Mg2+ (DPBS) and left to incubate overnight at 4°C. […]
# (§6) conjugates were added to the microtiterplates and incubated at room temperature for 1 h (see Experimental Section). After washing, bound fluorescence was measured using an Odyssey CLx (LI-COR) scanner. Representative images of the scanned plates and quantification of binding are shown. […]
# [2] = target: T2, Human αvβ6 (Homo sapiens, UniProt P06756+P18564); experiment: direct integrin binding assay of peptide-IRDye conjugates, human αvβ6-coated plates; conditions: plates coated with recombinant human αvβ6; conjugate 0.01-100 nM, 1 h; bound NIR fluorescence (Odyssey CLx); mean ± SE, n = 2 experiments
# T2 construct: purchased Bio-Techne
# T2 sequence (P06756 31-992 limits assumed): as the sequence (P06756 31-992 limits assumed) above
# T2 sequence (P18564 22-707 limits assumed): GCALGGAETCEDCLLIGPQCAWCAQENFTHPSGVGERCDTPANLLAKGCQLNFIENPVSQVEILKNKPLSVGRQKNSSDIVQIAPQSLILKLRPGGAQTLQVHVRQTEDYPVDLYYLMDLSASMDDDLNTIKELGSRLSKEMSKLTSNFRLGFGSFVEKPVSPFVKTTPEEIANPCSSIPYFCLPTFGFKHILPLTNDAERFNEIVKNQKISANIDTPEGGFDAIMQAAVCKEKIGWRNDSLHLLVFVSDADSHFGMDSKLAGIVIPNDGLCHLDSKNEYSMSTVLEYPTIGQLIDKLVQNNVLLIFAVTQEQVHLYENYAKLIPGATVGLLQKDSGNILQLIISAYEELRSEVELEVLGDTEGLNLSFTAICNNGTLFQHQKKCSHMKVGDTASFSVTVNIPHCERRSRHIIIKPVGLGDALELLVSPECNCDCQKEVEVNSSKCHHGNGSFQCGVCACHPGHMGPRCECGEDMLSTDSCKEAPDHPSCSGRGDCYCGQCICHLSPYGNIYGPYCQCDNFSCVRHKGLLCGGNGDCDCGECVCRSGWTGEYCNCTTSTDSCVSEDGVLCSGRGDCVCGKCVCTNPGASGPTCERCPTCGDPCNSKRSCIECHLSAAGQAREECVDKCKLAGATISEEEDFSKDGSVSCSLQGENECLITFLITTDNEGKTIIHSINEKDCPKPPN
# Protocol: as §1, §2, §3, §4, §5, §6
# [3] = system: 5M7101 pancreatic adenocarcinoma cells (αvβ6+ and αvβ8-); experiment: binding of peptide-IRDye conjugates to cultured 5M7101 cells; format: cell-based, murine; conditions: 0.32-200 nM, 1 h, 37 °C; bound NIR fluorescence
# Protocol: To assess the binding of peptide-IRDye conjugates to cells various amounts of conjugates (range 0.32-200 nM) were added to cultured cells and left to incubate for 1 h at 37 °C. After three washings, the cells were fixed and analyzed by scanning the plate with the Odyssey CLx.
# A control conjugate with a cysteine in place of the peptide was also prepared in parallel. The identity of the purified products, called 5a-IRDye, 2a-IRDye, and Cys-IRDye, was confirmed by mass spectrometry analysis (Table S1). In addition, the purity and identity of 5a-IRDye was monitored by liquid chromatography–mass spectrometry (LC-MS). […]
# that the product consist of a single peak at 230 and 735 nm with the expected molecular weight (purity >95%) (Figure S3A).
# as §2
# The concentration of each conjugate was quantified by spectrophotometric analysis at 774 nm (molar absorption coefficient, 240,000 M-1, cm-1) (Figure S3B). […]
# The binding of peptide-IRDye conjugates to BxPC-3, 5M7101, and HUVECs cells was analyzed as follows. […]
# chloride and 1% BSA (binding buffer) for 5 min. […] Binding of conjugates to cells was quantified by scanning the plate (filled with PBS, 100 µl/well) with the Odyssey CLx (LI-COR) using the above settings, except that the scan focus offset and scan intensity were set to 4 and 8.5, respectively. […]
EC50 [1] [nM],EC50 [2] [nM],SMILES,binding of conjugate to 5M7101 cells [3]
> 100,> 100,CC[C@H](C)[C@H](NC(=O)[C@H](CCCNC(=N)N)NC(=O)[C@H](CCC(=O)O)NC(=O)[C@H](CCC(=O)O)NC(=O)CNC(=O)[C@H](CCCNC(=N)N)NC(=O)[C@H](CC(C)C)NC(=O)[C@@H](NC(=O)[C@H](CCC(=O)O)NC(=O)[C@H](Cc1ccccc1)NC(=O)[C@@H](N)CSC1CC(=O)N(CCNC(=O)CCCCCN2/C(=C\C=C3\CCCC(/C=C/C4=[N+](CCCCS(=O)(=O)O)c5ccc(S(=O)(=O)[O-])cc5C4(C)C)=C3Oc3ccc(S(=O)(=O)O)cc3)C(C)(C)c3cc(S(=O)(=O)O)ccc32)C1=O)[C@@H](C)O)C(=O)N[C@@H](CC(C)C)C(=O)N[C@@H](CO)C(=O)N[C@H](C(=O)N[C@@H](CC(C)C)C(=O)N[C@@H](CCCNC(=N)N)C(=O)N[C@@H](Cc1c[nH]cn1)C(=O)N[C@@H](CCC(N)=O)C(=O)N[C@@H](CC(N)=O)C(=O)N[C@@H](CC(C)C)C(=O)N[C@@H](CC(C)C)C(=O)N[C@@H](CCCCN)C(=O)N[C@@H](CCC(=O)O)C(=O)N[C@@H](CC(C)C)C(=O)N[C@@H](CCC(N)=O)C(=O)N[C@@H](CC(=O)O)C(N)=O)[C@@H](C)CC (some centres unmarked) [2a-IRDye] (H-C(X1)FETLRGEERILSILRHQNLLKELQD-NH2),
> 100,> 100,CC1(C)C(/C=C/C2=C(Oc3ccc(S(=O)(=O)O)cc3)C(=C\C=C3/N(CCCCCC(=O)NCCN4C(=O)CC(SC[C@H](N)C(=O)O)C4=O)c4ccc(S(=O)(=O)O)cc4C3(C)C)/CCC2)=[N+](CCCCS(=O)(=O)O)c2ccc(S(=O)(=O)[O-])cc21 (some centres unmarked) [Cys-IRDye],little or no binding
